The term Ki denotes a dissociation constant, usually derived from enzyme kinetics or from competition with a known ligand. The low end stands for tighter binding, the high end for weaker binding.

The assay deals with KDM5B/JARID1B/PLU-1 (Homo sapiens, UniProt Q9UGL1). Briefly: in vitro histone demethylase inhibition, Ki. The format is biochemical.
Sequence of KDM5B/JARID1B/PLU-1 (Q9UGL1 whole entry): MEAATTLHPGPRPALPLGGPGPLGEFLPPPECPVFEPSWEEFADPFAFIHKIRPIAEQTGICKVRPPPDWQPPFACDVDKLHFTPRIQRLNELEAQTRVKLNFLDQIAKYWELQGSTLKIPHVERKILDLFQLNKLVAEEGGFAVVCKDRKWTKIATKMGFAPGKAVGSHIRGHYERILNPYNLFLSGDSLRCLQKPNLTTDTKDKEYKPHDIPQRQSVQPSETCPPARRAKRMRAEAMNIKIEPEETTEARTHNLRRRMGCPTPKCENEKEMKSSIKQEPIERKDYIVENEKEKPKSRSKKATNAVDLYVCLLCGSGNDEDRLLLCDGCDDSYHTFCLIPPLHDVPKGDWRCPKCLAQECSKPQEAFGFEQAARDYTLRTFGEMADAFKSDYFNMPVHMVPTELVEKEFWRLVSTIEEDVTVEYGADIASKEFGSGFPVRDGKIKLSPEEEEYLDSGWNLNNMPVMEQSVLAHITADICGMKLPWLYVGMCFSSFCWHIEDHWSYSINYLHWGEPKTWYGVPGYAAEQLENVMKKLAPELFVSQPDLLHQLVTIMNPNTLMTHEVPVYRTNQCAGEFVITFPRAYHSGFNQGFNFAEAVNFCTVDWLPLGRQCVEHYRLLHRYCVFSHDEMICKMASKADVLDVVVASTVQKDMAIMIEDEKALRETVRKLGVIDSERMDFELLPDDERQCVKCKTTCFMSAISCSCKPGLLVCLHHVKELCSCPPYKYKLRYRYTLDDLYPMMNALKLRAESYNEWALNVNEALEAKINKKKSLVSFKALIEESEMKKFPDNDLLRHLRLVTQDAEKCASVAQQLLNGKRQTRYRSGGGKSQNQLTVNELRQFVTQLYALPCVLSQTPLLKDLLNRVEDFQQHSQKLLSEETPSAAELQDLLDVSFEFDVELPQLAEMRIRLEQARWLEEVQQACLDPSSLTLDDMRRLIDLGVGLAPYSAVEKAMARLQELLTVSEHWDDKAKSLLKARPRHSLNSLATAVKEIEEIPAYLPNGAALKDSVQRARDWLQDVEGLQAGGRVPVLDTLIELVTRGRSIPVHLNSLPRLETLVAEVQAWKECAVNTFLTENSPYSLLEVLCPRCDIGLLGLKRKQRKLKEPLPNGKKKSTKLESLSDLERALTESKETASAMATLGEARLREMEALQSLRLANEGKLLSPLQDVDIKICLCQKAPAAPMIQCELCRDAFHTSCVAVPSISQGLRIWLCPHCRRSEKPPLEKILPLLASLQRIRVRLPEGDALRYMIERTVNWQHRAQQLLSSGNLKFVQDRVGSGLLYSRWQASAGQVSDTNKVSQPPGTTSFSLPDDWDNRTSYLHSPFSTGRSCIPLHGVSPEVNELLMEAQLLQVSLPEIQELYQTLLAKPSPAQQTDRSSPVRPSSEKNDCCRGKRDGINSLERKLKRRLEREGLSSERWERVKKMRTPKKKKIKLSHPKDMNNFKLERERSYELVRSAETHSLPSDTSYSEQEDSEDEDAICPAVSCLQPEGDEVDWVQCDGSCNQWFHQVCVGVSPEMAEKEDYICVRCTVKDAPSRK

Molecule `O=C(O)CNC(=O)C(=O)O` [N-oxalylglycine] had an inhibition constant (Ki) of 653 ± 128 µM.

For the origin of these results see PMC3229304 (2011).
